Experimental data taken from US10959986B2, “Inhibitors of indoleamine 2,3-dioxygenase and methods of their use” (BRISTOL-MYERS SQUIBB COMPANY, priority 2018, dated 2021).
Like-named read-outs stand apart in the source and are kept apart here.

Target: T1, indoleamine 2,3-dioxygenase (IDO) (Homo sapiens, UniProt P14902)
T1 construct: media containing IFNγ (#285-IF/CF, R&D Systems) at a final concentration of 25 ng/mL; endogenous in cells; host or cells: HeLa (ATCC CCL-2), induced with IFN-gamma
Assay: HeLa cell-based indoleamine 2,3-dioxygenase (IDO) assay
Conditions: HeLa cells with IFNγ 25 ng/mL, 48 hour incubation, kynurenine production
Protocol: Assessment of Inhibitor Activity in HeLa Cell-Based Indoleamine 2,3-Dioxygenase (IDO) Assay.
HeLa (ATCCR CCL-2) cells were obtained from the ATCC® and cultured in Dulbecco's Modified Eagle Medium supplemented with 4.5 g/L glucose, […] L-glutamine and […] (#10-013-CV, Corning), 2 mM L-alanyl-L-glutamine dipeptide (#35050-061, Gibco), 100U/mL penicillin, 100 µg/mL streptomycin (#SV30010, HyClone) and 10% fetal bovine serum (#SH30071.03 HyClone). Cells were maintained in a humidified incubator at 37° C. in 5% CO2.
IDO activity was assessed as a function of kynurenine production as follows: HeLa cells were seeded in a 96-well culture plate at a density of 5,000 cells/well and allowed to equilibrate overnight. After 24 hours, the media was aspirated and replaced with media containing IFNγ (#285-IF/CF, R&D Systems) at a final concentration of 25 ng/mL. A serial dilution of each test compound was added to the cells in a total volume of 200 μL of culture medium. After a further 48 hour incubation, 170 μL of supernatant was transferred from each well to a fresh 96-well plate. 12.1 μL of 6. IN trichloroacetic acid (#T0699, Sigma-Aldrich) was added to each well and mixed, followed by incubation at 65° C. for 20 minutes to hydrolyze N-formylkynurenine, the product of indoleamine 2,3-dioxygenase, to kynurenine. The reaction mixture was then centrifuged for 10 mins at 500×g to sediment the precipitate. 100 μL of the supernatant was transferred from each well to a fresh 96-well plate. 100 μl of 2% (w/v) p-dimethylaminobenzaldehyde (#15647-7, Sigma-Aldrich) in acetic acid (#A6283, Sigma-Aldrich) was added to each well mixed and incubated at room temperature for 20 mins. Kynurenine concentrations were determined by measuring absorbance at 480 nm and calibrating against an L-kynurenine (#K8625, Sigma-Aldrich) standard curve using a SPECTRAMAX® M2e microplate reader (Molecular Devices). The percentage activity at each inhibitor concentration was determined and IC50 values assessed using nonlinear regression.

[1] = read-out: IDO Hela IC50 potency class (A < 50, B < 250, C < 2000)

T1 sequence (P14902 whole entry): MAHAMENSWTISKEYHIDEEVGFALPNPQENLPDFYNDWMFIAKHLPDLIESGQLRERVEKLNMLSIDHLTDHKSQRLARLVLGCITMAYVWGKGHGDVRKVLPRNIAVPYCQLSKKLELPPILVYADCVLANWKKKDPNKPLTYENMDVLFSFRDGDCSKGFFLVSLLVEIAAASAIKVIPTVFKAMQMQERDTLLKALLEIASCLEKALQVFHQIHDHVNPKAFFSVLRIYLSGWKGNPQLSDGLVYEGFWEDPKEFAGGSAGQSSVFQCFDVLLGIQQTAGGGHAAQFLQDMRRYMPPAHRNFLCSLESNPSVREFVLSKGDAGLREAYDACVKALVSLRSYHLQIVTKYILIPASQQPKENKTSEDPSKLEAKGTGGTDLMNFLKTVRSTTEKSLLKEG

In the case of `CC[C@H](CC(=O)O)c1ccc(-c2cn[nH]c2)c(Nc2ccc(Cl)cc2)c1` (single isomer, unassigned) [Example 18], the IC50 (read-out: IDO Hela IC50) is reported as 70 nM.
With `CCOc1ncc(Nc2cc([C@H](CC)CC(=O)O)ccc2-c2ccc3cncn3c2)cn1` (single isomer, unassigned) [Example 85] the IC50 (read-out: IDO Hela IC50) was ≥ 1000 nM and the IC50 [1] was 250 to 2000 nM.
Compound `CCOc1ncc(Nc2cc([C@H](CC)CC(=O)O)ccc2-c2ccc3c(c2)OC(F)(F)O3)cn1` (single isomer, unassigned) [Example 83] has an IC50 (read-out: IDO Hela IC50) of 170 nM.
With `CC[C@@H](CC(=O)O)c1ccc(C2CCN(C(=O)OC(C)(C)C)CC2)c(Nc2ccc(C#N)cc2)c1` (single isomer, unassigned) [Example 32] the IC50 [1] was < 50 nM.
`CC[C@H](CC(=O)O)c1ccc(-c2cnn(C)c2)c(Nc2ccc(C#N)cc2)c1` (single isomer, unassigned) [Example 5] showed an IC50 (read-out: IDO Hela IC50) of 110 nM.
`CC[C@H](CC(=O)O)c1ccc(-c2cnn(C)c2)c(Nc2ccc(F)cc2)c1` (single isomer, unassigned) [Example 3] showed an IC50 (read-out: IDO Hela IC50) of 40 nM.
`CCOc1ncc(Nc2cc([C@H](CC)CC(=O)O)ccc2-c2sc(C)nc2C)cn1` (single isomer, unassigned) [Example 61] was tested, and the IC50 (read-out: IDO Hela IC50) was 10 nM.
In the case of `CCOc1ncc(Nc2cc([C@H](CC)CC(=O)O)ccc2-c2ccc3nc(C)oc3c2)cn1` (single isomer, unassigned) [Example 65], the IC50 (read-out: IDO Hela IC50) is reported as ≥ 1000 nM and the IC50 [1] is reported as 250 to 2000 nM.
`CCOc1ncc(Nc2cc([C@H](CC)CC(=O)O)ccc2-c2ccnc(N3CCOCC3)n2)cn1` (single isomer, unassigned) [Example 84] showed an IC50 (read-out: IDO Hela IC50) of 760 nM.
`CCOc1ncc(Nc2cc([C@H](CC)CC(=O)O)ccc2-c2nc3ccccc3s2)cn1` (single isomer, unassigned) [Example 76] showed an IC50 (read-out: IDO Hela IC50) of 950 nM.
`CCOc1ncc(Nc2cc([C@H](CC)CC(=O)O)ccc2-c2ccc3c(cnn3C)c2)cn1` (single isomer, unassigned) [Example 51] was tested, and the IC50 (read-out: IDO Hela IC50) was 150 nM.
In the case of `CC[C@H](CC(=O)O)c1ccc(-c2cnn(C)c2)c(Nc2ccccn2)c1` (single isomer, unassigned) [Example 15], the IC50 (read-out: IDO Hela IC50) is reported as ≥ 1000 nM and the IC50 [1] is reported as 250 to 2000 nM.
With `CCOc1ncc(Nc2cc([C@H](CC)CC(=O)O)ccc2-c2cn3ccccc3n2)cn1` (single isomer, unassigned) [Example 77] the IC50 (read-out: IDO Hela IC50) was ≥ 1000 nM and the IC50 [1] was 250 to 2000 nM.
For `CCOc1ncc(Nc2cc([C@H](CC)CC(=O)O)ccc2-c2ccc(C#N)cn2)cn1` (single isomer, unassigned) [Example 62], the IC50 (read-out: IDO Hela IC50) was 890 nM.
For `CC[C@H](CC(=O)O)c1ccc(-c2nccs2)c(Nc2ccc(Cl)cc2)c1` (single isomer, unassigned) [Example 21], the IC50 (read-out: IDO Hela IC50) was ≥ 1000 nM and the IC50 [1] was 250 to 2000 nM.
`CC[C@H](CC(=O)O)c1ccc(-c2cnn(C)c2)c(Nc2cccc(Cl)c2)c1` (single isomer, unassigned) [Example 7] was tested, and the IC50 (read-out: IDO Hela IC50) was ≥ 1000 nM and the IC50 [1] was 250 to 2000 nM.
For `CCOc1ncc(Nc2cc([C@H](CC)CC(=O)O)ccc2-c2ccn3ccnc3c2)cn1` (single isomer, unassigned) [Example 86], the IC50 (read-out: IDO Hela IC50) was ≥ 1000 nM and the IC50 [1] was 250 to 2000 nM.
Compound `COC[C@@H](CC(=O)O)c1ccc(-c2ccc3c(c2)OCO3)c(Nc2ccc(C#N)cc2)c1` (single isomer, unassigned) [Example 34] has an IC50 (read-out: IDO Hela IC50) of 320 nM.
`CC[C@H](CC(=O)O)c1ccc(-c2c(C)noc2C)c(Nc2ccc(Cl)cc2)c1` (single isomer, unassigned) [Example 17] was tested, and the IC50 (read-out: IDO Hela IC50) was 10 nM.
For `CCOc1ncc(Nc2cc([C@H](CC)CC(=O)O)ccc2-c2c[nH]c3cnccc23)cn1` (single isomer, unassigned) [Example 67], the IC50 (read-out: IDO Hela IC50) was ≥ 1000 nM and the IC50 [1] was 250 to 2000 nM.
`CCOc1ncc(Nc2cc([C@@H](CC)CC(=O)O)ccc2C2CCN(C(=O)OC(C)(C)C)CC2)cn1` (single isomer, unassigned) [Example 26] was tested, and the IC50 (read-out: IDO Hela IC50) was 20 nM.
`CCOc1ncc(Nc2cc([C@H](CC)CC(=O)O)ccc2-c2cnn(CCN3CCOCC3)c2)cn1` (single isomer, unassigned) [Example 55] was tested, and the IC50 (read-out: IDO Hela IC50) was ≥ 1000 nM and the IC50 [1] was 250 to 2000 nM.
